Test results from patent US7553821B2, “Methods for selectively modulating survivin apoptosis pathways” (Yale University, priority 2000, dated 2009).

Test system: HeLa cells
Assay: Nuclear morphology of apoptosis (DAPI) in transfected HeLa cells
Format: cell-based
Excerpt: HeLa cells transfected with GFP-vector (vector), GFP-survivin(T34A) (T34A), or GFP-caspase-9 (Met^1-Asp^330) (caspase-9), were scored morphologically for nuclear integrity by DAPI staining after 48-h. Arrows, nuclear fragmentation and chromatin condensation in GFP-expressing cells.
The experimental procedures are the same as in A. Data are the meaνSEM of four independent experiments.
HeLa cells were transfected with the various indicated combinations of GFP-constructs, with or without etoposide (10 μg/ml) or TNFα (10 ng/ml) plus cycloheximide (10 μg/ml), harvested after 48 h, and GFP-labeled cells were morphologically scored for nuclear fragmentation by DAPI staining, as described in FIG. 2B. DN, dominant negative. Data are the mea±SEM of four independent experiments.
Transfection experiments. For transient transfection, HeLa cells in C-6 tissue culture plates (Costar, Cambridge, Mass.) at ˜60-70% confluency, were incubated in 1 ml of serum-free OptiMEM medium (Life Technologies, Gaithersburg, Md.) for 20 min, and transfected with 2.5 μg of the various plasmid cDNAs plus 9 μl Lipofectamine (Life Technologies). After a 5 h incubation at 37° C., the mixture was aspirated and substituted with complete growth medium for 48-72 h. To generate stable YUSAC-2 transfectants, a survivin(T34A) cDNA was inserted into the HindIII-SpeI sites of the pTet-splice vector (Dr. D. Schatz, Yale University School of Medicine), downstream of the regulatory sequences of the Tet-resistance operon (TetO). YUSAC-2 cells were transfected with 0.8 μg pTet-T34A, 0.8 μg of the transactivation/selection plasmid ptTA-Neo and 5 μl Lipofectamine in 1 ml of OptiMem. Forty-eight h after transfection, cells were re-plated at low density in 15×150 mm plates in growth medium containing 1.5 mg/ml Geneticin (G418, Life Technologies), 2 mM sodium hydroxide and 0.5 μg/ml Tet (Sigma, St. Louis, Mo.) (selection medium). After a 3-week culture, ninety-six individual clones were screened for differential growth in the presence or absence of Tet. […] Flow cytometry. HeLa cells transfected with the various GFP constructs in the presence or in the absence of the broad-spectrum caspase inhibitor Z-VAD-fmk (20 μM) were harvested after 48-h (non-adherent and adherent cells), washed in PBS, pH 7.0, and fixed in cold 70% ethanol for 30 min on ice. After washes in PBS, cells (10×10^6/ml) were stained with 25 μg/ml propidium iodide (Sigma), 0.05% Triton X-100 and 100 μg/ml RNAse A (Boehringer Mannheim, Indianapolis, Ind.) for 45 min at 22° C. Gated GFP-expressing cells were analyzed for DNA content by flow cytometry on a FACSort (Becton Dickinson, San Jose, Calif.) using a Cell Quest software. In other experiments, F5-C4 cells were synchronized at the G1/S boundary by culture with 5-mM thymidine for 16 h at 37° C., in the presence or in the absence of Tet. At the end of the incubation, cells were released from the thymidine block, and harvested at 3-h intervals for DNA content analysis by propidium iodide staining and flow cytometry, or, alternatively, for caspase-9 processing by Western blotting (see below). TUNEL staining. Internucleosomal DNA fragmentation of F5.C4 cells in the presence or in the absence of Tet was carried out by end-labeling with terminal deoxynucleotidyl transferase (TdT) and peroxidase-conjugated anti-digoxigenin antibody using the ApopTag kit (Intergen, Purchase, N.Y.), as described previously (Grossman et al., 1999). Immunoprecipitation and Western blotting. Asynchronously growing or synchronized HeLa cells were lysed in 200 μl of lysis buffer containing 50 mM Tris, pH 7.5, 1% NP-40, 0.25% DOC, 150 mM NaCl, 1 mM PMSF, 10 μg/ml aprotinin, 10 μg/ml leupeptin, 10 μg/ml pepstatin, 1 mM Na3VO4, 20 mM NaF, 0.2 mM EGTA, 1 mM EDTA, pH 8.0, for 30 min at 4° C. Insoluble material was removed by centrifugation at 14,000 rpm for 15 min, and two-hundred μg of protein lysate was pre-absorbed with 25 μl of a 50:50 Protein A Sepharose slurry (Pharmacia) for 3 h at 4° C. with constant agitation. […]

## survivin(T34A): dominant-negative, non-phosphorylatable survivin mutant with Thr34→Ala substitution, expressed from transfected cDNA (also HA- or GFP-tagged)
GFP fusion, 48 h, no exogenous apoptotic stimuli
  spontaneous chromatin condensation and DNA fragmentation, GFP-expressing cells: ~80%
Survivin BIR domain mutants
  ability to induce spontaneous apoptosis upon transient transfection: particularly effective
